Laboratory results: patent US20240041042A1, “1-(PYRIDYL)-5-AZINYLPYRAZOLE DERIVATIVES, AND THEIR USE FOR CONTROL OF UNDESIRED PLANT GROWTH” (Bayer Aktiengesellschaft, priority 2020, published 2024)
Like-named read-outs stand apart in the source and are kept apart here.

Tests used:
Assay type in all cases: in vivo
[1] = test system: Verconica persica (VERPE); experiment: Post-emergence herbicidal action against VERPE
Procedure, shortened: (§1)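 Greenhouse plants sprayed at the one-leaf stage, 2–3 weeks after sowing, with WP or EC formulations plus 0.5% additive at 600 l/ha water. Activity rated visually after about 3 weeks versus untreated controls (100% = dead, 0% = like control), at 320 g/ha or lower.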

[2] = test system: Echinochloa crus-galli (ECHCG); experiment: Pre-emergence herbicidal action against ECHCG
Procedure, shortened: (§2)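 Pre-emergence soil-surface spray, WP/EC formulation, 0.5% additive, 600 l/ha water, rates of 320 g/ha or lower. Greenhouse, ~3 wk. Visual score, % of untreated control (100% = plants dead, 0% = like control).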

[3] = test system: Amaranthus retroflexus (AMARE); experiment: Pre-emergence herbicidal action against AMARE; conditions: visual scoring after about 3 weeks vs untreated controls
Procedure, shortened: as §2

[4] = test system: Avena fatua (AVEFA); experiment: Post-emergence herbicidal action against AVEFA; conditions: visual rating about 3 weeks after treatment
Procedure, shortened: as §1

[5] = test system: Pharbitis purpurea (PHBPU); experiment: Post-emergence herbicidal action against PHBPU; conditions: dosage 320 g/ha
Procedure, shortened: as §1

[6] = test system: Alopecurus myosuroides (ALOMY); experiment: Pre-emergence herbicidal action against ALOMY; conditions: scored visually after about 3 weeks, 100% = plants have died
Procedure, shortened: as §2

[7] = test system: Amaranthus retroflexus (AMARE); experiment: Post-emergence herbicidal action against AMARE
Procedure, shortened: as §1

[8] = test system: Viola tricolor (VIOTR); experiment: Pre-emergence herbicidal action against VIOTR
Procedure, shortened: as §2

[9] = test system: Pharbitis purpurea (PHBPU); experiment: Pre-emergence herbicidal action against PHBPU
Procedure, shortened: as §2

[10] = test system: Polygonum convolvulus (POLCO); experiment: Pre-emergence herbicidal action against POLCO
Procedure, shortened: as §2

[11] = test system: Matricaria inodora (MATIN); experiment: Pre-emergence herbicidal action against MATIN; conditions: dosage 320 g/ha
Procedure, shortened: as §2

[12] = test system: Lolium rigidum (LOLRI); experiment: Post-emergence herbicidal action against LOLRI
Procedure, shortened: as §1

[13] = test system: Alopecurus myosuroides (ALOMY); experiment: Post-emergence herbicidal action against ALOMY; conditions: visual rating about 3 weeks after treatment vs untreated controls (100% = plants have died, 0% = like control plants)
Procedure, shortened: as §1

[14] = test system: Echinochloa crus-galli (ECHCG); experiment: Post-emergence herbicidal action against ECHCG
Procedure, shortened: as §1

[15] = test system: Zea mays (ZEAMX)
Procedure, shortened: (§3)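 Effects were read visually as % versus untreated controls (0% = no effect, 100% = death) about 3 weeks post-treatment. Application was a post-emergence spray at the one-leaf stage of WP/EC formulations with 0.5% additive at 600 l/ha. Different dosages are denoted a, b and c.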

[16] = test system: Oryza sativa (ORYSA); conditions: crop plant compatibility
Procedure, shortened: as §3

[17] = test system: Lolium rigidum (LOLRI); experiment: Pre-emergence herbicidal action against LOLRI
Procedure, shortened: as §2

[18] = test system: Viola tricolor (VIOTR); experiment: Post-emergence herbicidal action against VIOTR
Procedure, shortened: as §1

[19] = test system: Matricaria inodora (MATIN); experiment: Post-emergence herbicidal action against MATIN
Procedure: Seeds of monocotyledonous and dicotyledonous weeds and crop plants are placed in sandy loam in plastic or organic planting pots, covered with soil and cultivated in a greenhouse under controlled growth conditions. 2 to 3 weeks after sowing, the test plants are treated at the one-leaf stage. The compounds of the invention, formulated in the form of wettable powders (WP) or as emulsion concentrates (EC), are then sprayed onto the green parts of the plants as aqueous suspension or emulsion with addition of 0.5% additive at a water application rate of 600 l/ha (converted). After the test plants have been kept in the greenhouse under optimum growth conditions for about 3 weeks, the activity of the preparations is rated visually in comparison to untreated controls. For example, 100% activity=the plants have died, 0% activity=like control plants.
Tables B1 to B13 below show the effects of selected compounds of the general formula (I) according to Table 1 on various harmful plants and at an application rate corresponding to 320 g/ha or lower, which were obtained by the experimental procedure mentioned above. The appendices “a”, “b” and “c” give differentiation by dosage used with otherwise the same harmful plants tested.

[20] = test system: Verconica persica (VERPE); experiment: Pre-emergence herbicidal action against VERPE; conditions: dosage 320 g/ha
Procedure, shortened: as §2

[21] = test system: Setaria viridis (SETVI); experiment: Post-emergence herbicidal action against SETVI
Procedure, shortened: as §1

[22] = test system: Polygonum convolvulus (POLCO); experiment: Post-emergence herbicidal action against POLCO
Procedure, shortened: as §1

[23] = test system: Setaria viridis (SETVI); experiment: Pre-emergence herbicidal action against SETVI
Procedure, shortened: as §2

[24] = test system: Avena fatua (AVEFA); experiment: Pre-emergence herbicidal action against AVEFA; conditions: 320 g/ha, visual scoring after about 3 weeks vs untreated controls
Procedure, shortened: as §2

[25] = test system: Abutilon theophrasti (ABUTH); experiment: Post-emergence herbicidal action against ABUTH; conditions: visual rating about 3 weeks after treatment vs untreated controls (100% = plants have died, 0% = like control plants)
Procedure, shortened: as §1

[26] = 80 g/ha, visual rating about 3 weeks after treatment vs untreated controls (100% = plants have died, 0% = like control plants)
[27] = 320 g/ha, visual rating about 3 weeks after treatment

SMILES	Post-emergence action against VERPE in % ([1]; 320 g/ha, VERPE) [%]	Pre-emergence action against ECHCG in % ([2]; dosage 80 g/ha) [%]	Pre-emergence action against ECHCG in % ([2]; dosage 320 g/ha) [%]	Pre-emergence action against AMARE in % ([3]; 80 g/ha) [%]	Pre-emergence action against AMARE in % ([3]; 320 g/ha) [%]	Post-emergence action against AVEFA in % ([4]; 80 g/ha) [%]	Pre-emergence action against ALOMY ([6]; 320 g/ha) [%]	Post-emergence action against AMARE in % [7, 26] [%]	Pre-emergence action against VIOTR in % ([8]; 320 g/ha, Viola tricolor) [%]	Pre-emergence action against VIOTR in % ([8]; dosage 80 g/ha) [%]	Pre-emergence action against PHBPU in % ([9]; dosage 320 g/ha) [%]	Pre-emergence action against POLCO in % ([10]; dosage 320 g/ha) [%]	Pre-emergence action against MATIN in % [11] [%]	Post-emergence action against LOLRI in % ([12]; dosage 80 g/ha) [%]	Post-emergence action against ALOMY in % ([13]; 80 g/ha) [%]	Pre-emergence action against LOLRI in % ([17]; dosage 320 g/ha) [%]	Pre-emergence action against VERPE in % [20] [%]	Post-emergence action against SETVI in % ([21]; dosage 80 g/ha) [%]	Pre-emergence action against SETVI in % ([23]; dosage 320 g/ha) [%]	Pre-emergence action against AVEFA in % [24] [%]	further results
CCOC(=O)COc1nn(-c2ncccc2C)c(-c2ccc(F)nc2)c1Br [Example I-321]	90	100	100	100	100	90	100	80	100	90	90	100	100	100	90	100	100	90	100	90	Post-emergence action against AVEFA in % ([4]; 320 g/ha): 90%; Post-emergence action against PHBPU in % [5]: 90%; Post-emergence action against AMARE in % [7, 27]: 80%; Pre-emergence action against PHBPU in % ([9]; dosage 80 g/ha): 80%; Pre-emergence action against POLCO in % ([10]; dosage 80 g/ha): 90%; Post-emergence action against LOLRI in % ([12]; dosage 320 g/ha): 100%; Post-emergence action against ALOMY in % ([13]; 320 g/ha): 100%; Post-emergence action against ECHCG in % ([14]; dosage 80 g/ha): 90%; Post-emergence action against ECHCG in % ([14]; dosage 320 g/ha): 90%; Post-emergence action against ZEAMX in % ([15]; crop plant compatibility, 80 g/ha, effect vs untreated controls): 0%; Post-emergence action against ORYSA in % ([16]; 80 g/ha, effect in comparison to untreated controls): 0%; Pre-emergence action against LOLRI in % ([17]; dosage 80 g/ha): 100%; Post-emergence action against VIOTR in % ([18]; 80 g/ha): 80%; Post-emergence action against VIOTR in % ([18]; 320 g/ha): 80%; Post-emergence action against MATIN in % ([19]; dosage 320 g/ha): 80%; Post-emergence action against SETVI in % ([21]; dosage 320 g/ha): 90%; Post-emergence action against POLCO in % ([22]; dosage 80 g/ha): 80%; Post-emergence action against POLCO in % ([22]; dosage 320 g/ha): 90%
CC(C)=NOC(=O)[C@@H](C)Oc1nn(-c2ncccc2F)c(-c2ccc(F)nc2)c1Br [Example I-374]	–	–	100	100	100	90	100	80	100	90	90	90	90	90	100	100	100	90	100	100	Post-emergence action against VERPE in % ([1]; dosage 80 g/ha): 80%; Pre-emergence action against ALOMY ([6]; 80 g/ha): 90%; Pre-emergence action against POLCO in % ([10]; dosage 80 g/ha): 80%; Post-emergence action against ABUTH in % ([25]; 80 g/ha): 80%; Post-emergence action against ZEAMX in % (crop plant compatibility) ([15]; 20 g/ha, ZEAMX, effect in comparison to untreated controls): 10%; Post-emergence action against ORYSA in % ([16]; 20 g/ha, effect vs untreated controls): 10%; Pre-emergence action against LOLRI in % ([17]; dosage 80 g/ha): 80%; Post-emergence action against MATIN in % ([19]; dosage 80 g/ha): 80%
COC(=O)COc1nn(-c2ncccc2F)c(-c2ccc(F)nc2)c1C1CC1 [Example I-42]	90	100	100	90	100	100	100	90	100	100	90	90	100	100	100	100	100	90	100	100	Post-emergence action against VERPE in % ([1]; dosage 80 g/ha): 90%; Post-emergence action against AVEFA in % ([4]; 320 g/ha): 100%; Post-emergence action against PHBPU in % [5]: 90%; Pre-emergence action against ALOMY ([6]; 80 g/ha): 100%; Post-emergence action against AMARE in % [7, 27]: 90%; Post-emergence action against LOLRI in % ([12]; dosage 320 g/ha): 100%; Post-emergence action against ALOMY in % ([13]; 320 g/ha): 100%; Post-emergence action against ECHCG in % ([14]; dosage 80 g/ha): 90%; Post-emergence action against ECHCG in % ([14]; dosage 320 g/ha): 90%; Post-emergence action against ABUTH in % ([25]; 80 g/ha): 90%; Post-emergence action against ABUTH in % ([25]; 320 g/ha): 90%; Post-emergence action against VIOTR in % ([18]; 80 g/ha): 90%; Post-emergence action against VIOTR in % ([18]; 320 g/ha): 90%; Post-emergence action against MATIN in % ([19]; dosage 80 g/ha): 80%; Post-emergence action against MATIN in % ([19]; dosage 320 g/ha): 90%; Post-emergence action against SETVI in % ([21]; dosage 320 g/ha): 90%; Post-emergence action against POLCO in % ([22]; dosage 80 g/ha): 80%; Post-emergence action against POLCO in % ([22]; dosage 320 g/ha): 90%; Pre-emergence action against SETVI in % ([23]; dosage 80 g/ha): 100%
